Source: ChEMBL document CHEMBL1122903, “Synthesis, in vitro [3H]prazosin displacement, and in vivo activity of 3-aryl-4,5,6,7-tetrahydropyrazolo[4,3-c]pyridines, a new class of antihypertensive agents” (J Med Chem, 1985)

Legend:
[1] = system: Rattus norvegicus; assay: Antihypertensive activity on spontaneously hypertensive rats when administered orally at a dose 50 mg/kg.; assay type: functional; conditions: route oral
[2] = biological target: T1, Adrenergic receptor alpha-1 (Rattus norvegicus, UniProt P15823+P23944+P43140); assay: Ability to displace [3H]prazosin from postsynaptic alpha-1 adrenergic receptor of rat in vitro.; assay type: protein assay
T1 sequence (P15823 whole entry): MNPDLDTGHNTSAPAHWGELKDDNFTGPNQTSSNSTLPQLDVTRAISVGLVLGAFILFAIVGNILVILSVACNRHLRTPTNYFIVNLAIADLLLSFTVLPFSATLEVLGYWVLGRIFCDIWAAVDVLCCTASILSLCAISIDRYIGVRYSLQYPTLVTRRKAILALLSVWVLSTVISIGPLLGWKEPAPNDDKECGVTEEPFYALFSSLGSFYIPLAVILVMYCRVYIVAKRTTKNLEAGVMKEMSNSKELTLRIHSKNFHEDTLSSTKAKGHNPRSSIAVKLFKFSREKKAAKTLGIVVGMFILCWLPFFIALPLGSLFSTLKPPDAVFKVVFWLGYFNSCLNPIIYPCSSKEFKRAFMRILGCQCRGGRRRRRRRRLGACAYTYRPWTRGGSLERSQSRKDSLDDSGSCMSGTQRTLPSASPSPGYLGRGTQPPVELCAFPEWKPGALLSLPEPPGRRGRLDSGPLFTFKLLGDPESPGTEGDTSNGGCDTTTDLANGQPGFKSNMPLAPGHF
T1 sequence (P23944 whole entry): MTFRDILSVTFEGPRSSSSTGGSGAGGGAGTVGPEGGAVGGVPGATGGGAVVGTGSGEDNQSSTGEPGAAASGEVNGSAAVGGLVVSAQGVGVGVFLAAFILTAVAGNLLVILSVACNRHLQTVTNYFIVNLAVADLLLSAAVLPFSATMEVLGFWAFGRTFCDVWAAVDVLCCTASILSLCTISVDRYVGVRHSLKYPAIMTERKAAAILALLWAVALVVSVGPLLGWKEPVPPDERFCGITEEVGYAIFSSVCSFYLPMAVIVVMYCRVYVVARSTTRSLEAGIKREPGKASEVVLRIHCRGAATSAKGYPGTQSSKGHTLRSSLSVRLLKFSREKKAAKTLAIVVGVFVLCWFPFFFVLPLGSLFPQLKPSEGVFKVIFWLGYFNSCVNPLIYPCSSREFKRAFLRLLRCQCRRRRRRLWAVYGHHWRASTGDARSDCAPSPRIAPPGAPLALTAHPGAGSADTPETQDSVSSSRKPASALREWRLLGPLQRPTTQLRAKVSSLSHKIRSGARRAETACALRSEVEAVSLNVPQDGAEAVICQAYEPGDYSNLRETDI
T1 sequence (P43140 whole entry): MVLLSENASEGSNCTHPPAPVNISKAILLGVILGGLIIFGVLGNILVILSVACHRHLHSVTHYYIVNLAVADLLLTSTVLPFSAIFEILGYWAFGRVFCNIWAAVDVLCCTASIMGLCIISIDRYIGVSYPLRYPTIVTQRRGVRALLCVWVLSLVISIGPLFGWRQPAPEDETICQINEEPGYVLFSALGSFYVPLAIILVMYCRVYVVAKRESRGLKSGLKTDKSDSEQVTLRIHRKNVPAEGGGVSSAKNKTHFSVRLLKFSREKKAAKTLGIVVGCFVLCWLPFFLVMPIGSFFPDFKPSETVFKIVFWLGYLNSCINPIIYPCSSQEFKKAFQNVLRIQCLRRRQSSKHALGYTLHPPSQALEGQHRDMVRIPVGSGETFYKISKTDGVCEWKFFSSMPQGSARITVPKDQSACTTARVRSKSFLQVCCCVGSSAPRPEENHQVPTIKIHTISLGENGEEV

[3] = system: Rattus norvegicus; assay: Antihypertensive activity on spontaneously hypertensive rats, when administered intravenously at a dose 10 mg/kg; assay type: functional; conditions: route intravenous
[4] = system: Rattus norvegicus; assay: Antihypertensive activity on spontaneously hypertensive rats, when administered orally at a dose 20 mg/kg; assay type: functional; conditions: route oral

SMILES	Delta p [1] [%]	Ki [2] [nM]	Delta p [3] [%]	Delta p [4] [%]
Fc1ccccc1-c1[nH]nc2c1CNCC2	0	> 3000		
CN1CCc2c(c(-c3ccc(F)cc3)nn2CCc2ccccc2)C1	0	40.3		
CCCCCCn1nc(-c2ccc(F)cc2)c2c1CCN(C)C2.CS(=O)(=O)O	-16	15.2		
CCN1CCc2n[nH]c(-c3ccc(OC)cc3)c2C1	0	> 3000		
CCCn1nc(-c2ccc(F)cc2)c2c1CCNC2.CS(=O)(=O)O	-33	24.2		
CCN1CCc2n[nH]c(-c3ccc(C)cc3)c2C1.O=C(O)CC(=O)O	0	350		
CN1CCc2n[nH]c(-c3ccccc3)c2C1.O=C(O)CC(O)(CC(=O)O)C(=O)O	0	1300		
Clc1cccc(-c2[nH]nc3c2CNCC3)c1	0	> 3000		
CS(=O)(=O)O.Fc1ccc(-c2nn(CCCc3ccccc3)c3c2CNCC3)cc1		12.9	-37	
CC(c1ccccc1)n1nc(-c2ccc(F)cc2)c2c1CCNC2.CS(=O)(=O)O (stereo unspecified)		7.2		-15
CCCCCn1nc(-c2ccc(F)cc2)c2c1CCNC2.CS(=O)(=O)O		8.7		-20
CN1CCc2c(c(-c3ccc(F)cc3)nn2-c2ccc(F)cc2)C1.CS(=O)(=O)O		206		0
CC(C)n1nc(-c2ccccc2)c2c1CCNC2	0	1100		
COc1ccc(-c2[nH]nc3c2CNCC3)cc1OC	0	> 3000		
Fc1cccc(-c2[nH]nc3c2CNCC3)c1	0	> 3000		
CCn1nc(-c2ccc(F)cc2)c2c1CCN(Cc1ccccc1)C2.CS(=O)(=O)O	-23	2020		
CCn1nc(-c2ccc(F)cc2)c2c1CCNC2.CS(=O)(=O)O		32.5		-37
Cn1nc(-c2ccc(F)cc2)c2c1CCNC2	0	1060		
CC(C)N1CCc2c(c(-c3ccc(F)cc3)nn2Cc2ccccc2)C1	-20	97.6		
COc1ccc(-c2[nH]nc3c2CNCC3)cc1	-15	448		
N#Cc1ccc(-c2[nH]nc3c2CNCC3)cc1	0	> 3000		
CCCCn1nc(-c2ccc(F)cc2)c2c1CCNC2.CS(=O)(=O)O		17.3	-30	
CCN1CCc2n[nH]c(-c3ccc(F)cc3)c2C1.O=C(O)CC(=O)O	0	3400		
CS(=O)(=O)O.Fc1ccc(-c2nn(CCc3ccccc3)c3c2CNCC3)cc1	-15	40.3		

SMILES	Delta p [1] [%]	Ki [2] [nM]	Delta p [3] [%]	Delta p [4] [%]
Cc1ccc(-c2[nH]nc3c2CN(C)CC3)cc1.Cc1ccc(S(=O)(=O)O)cc1		249		0
CN1CCc2n[nH]c(-c3ccc(Cl)cc3)c2C1.O=C(O)CC(O)(CC(=O)O)C(=O)O	0	2000		
CN1CCc2n[nH]c(-c3ccc(F)cc3)c2C1		507		0
Cc1ccc(-c2[nH]nc3c2CNCC3)cc1.Cl.Cl		92.2		0
Cl.Cl.c1ccc(-c2[nH]nc3c2CNCC3)cc1	-18	490		
CCCCn1nc(-c2ccc(F)cc2)c2c1CCN(C)C2.CS(=O)(=O)O	-18	32.8		
CCCn1nc(-c2ccc(F)cc2)c2c1CCN(C)C2.CS(=O)(=O)O	-25	73.5		
Fc1ccc(-c2[nH]nc3c2CNCC3)cc1	-37	69.2		
CS(=O)(=O)O.Cn1nc(-c2ccccc2)c2c1CCNC2	0	3290		
Cn1nc(-c2cccc(Cl)c2)c2c1CCNC2	0	> 3000		
CC(C)n1nc(-c2ccccc2)c2c1CCN(C)C2.CS(=O)(=O)O	0	2870		
Cn1nc(-c2cccc(F)c2)c2c1CCNC2	0	> 3000		
CN1CCc2c(c(-c3ccc(F)cc3)nn2Cc2ccccc2)C1.CS(=O)(=O)O	-18	21.2		
Cc1ccc(S(=O)(=O)O)cc1.Cn1nc(-c2ccccc2F)c2c1CCNC2	0	> 3000		
CCCCCCn1nc(-c2ccc(F)cc2)c2c1CCNC2.CS(=O)(=O)O	0	13		
CCCCCn1nc(-c2ccc(F)cc2)c2c1CCN(C)C2.CS(=O)(=O)O		18.3		-21
CCCCN1CCc2c(c(-c3ccc(F)cc3)nn2Cc2ccccc2)C1.Cl	-16	119		
Cl.Fc1ccc(-c2nn(Cc3ccccc3)c3c2CN(C2CCCC2)CC3)cc1	-18	42.4		
CCN1CCc2n[nH]c(-c3ccccc3)c2C1.Cl	0	1500		
Cl.Fc1ccc(-c2nn(-c3ccc(F)cc3)c3c2CNCC3)cc1		161		0
CN1CCc2c(c(-c3ccc(F)cc3)nn2CCCc2ccccc2)C1.Cl	0	20.6		
Cl.Cn1nc(-c2ccc(Cl)cc2)c2c1CCNC2	-26	190		
Cl.O=[N+]([O-])c1ccc(-c2[nH]nc3c2CNCC3)cc1	0	> 3000		
CC(c1ccccc1)n1nc(-c2ccc(F)cc2)c2c1CCN(C)C2.Cl (stereo unspecified)		8.1		-15
